Laboratory results reported in patent US10597388B2, “Pyridazinone herbicides” (FMC CORPORATION, priority 2014, dated 2020).

Columns and labels:
Assay in all cases: Test E greenhouse herbicide test, pre- and postemergence
Format in all cases: in vivo
[1] = system: surinam grass (Brachiaria decumbens); conditions: Preemergence
How it was run: (§1)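 Greenhouse pots; preemergence on silt loam, postemergence on plants 1- to 4-leaf (2 to 18 cm) grown in peat, vermiculite and nutrient medium. Test chemicals formulated in non-phytotoxic solvent with surfactant. Ratings taken after 14 to 21 d.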

[2] = system: kochia (Kochia scoparia)
How it was run: as §1

[3] = system: nutsedge, yellow (yellow nutsedge, Cyperus esculentus); conditions: Preemergence
How it was run: as §1

[4] = system: barnyardgrass (Echinochloa crus-galli)
How it was run: as §1

[5] = system: goosegrass (Eleusine indica); conditions: Preemergence
How it was run: as §1

[6] = system: crabgrass, Brazilian (Brazilian crabgrass, Digitaria horizontalis)
How it was run: as §1

[7] = system: pigweed, palmer (palmer pigweed, Amaranthus palmeri)
How it was run: as §1

[8] = system: dayflower (Virginia (VA) dayflower, Commelina virginica)
How it was run: as §1

[9] = system: waterhemp (common waterhemp, Amaranthus rudis)
How it was run: as §1

[10] = system: johnsongrass (Sorghum halepense); conditions: Preemergence
How it was run: as §1

[11] = 62 g ai/ha, scale 0 to 100 (0 no effect, 100 complete control)
[12] = 125 g ai/ha, scale 0 to 100 (0 no effect, 100 complete control)
[13] = 16 g ai/ha, scale 0 to 100, 0 no effect, 100 complete control
[14] = 31 g ai/ha, scale 0 to 100, 0 no effect, 100 complete control
[15] = 250 g ai/ha, visual, scale 0 no effect to 100 complete control
[16] = 62 g ai/ha, Preemergence, scale 0 to 100 (0 no effect, 100 complete control)
[17] = Preemergence, 16 g ai/ha, scale 0 to 100, 0 no effect, 100 complete control
[18] = Preemergence, 31 g ai/ha, scale 0 to 100, 0 no effect, 100 complete control
[19] = Preemergence, 125 g ai/ha, visual, scale 0 no effect to 100 complete control
[20] = Preemergence, 250 g ai/ha, visual, scale 0 no effect to 100 complete control
[21] = 62 g ai/ha, Postemergence, scale 0 to 100 (0 no effect, 100 complete control)
[22] = 125 g ai/ha, Postemergence, scale 0 to 100 (0 no effect, 100 complete control)
[23] = 250 g ai/ha, Postemergence, scale 0 to 100 (0 no effect, 100 complete control)
[24] = Postemergence, 16 g ai/ha, visual, scale 0 no effect to 100 complete control
[25] = Postemergence, 31 g ai/ha, visual, scale 0 no effect to 100 complete control
[26] = 125 g ai/ha, visual, scale 0 no effect to 100 complete control
[27] = 125 g ai/ha, Preemergence, scale 0 to 100 (0 no effect, 100 complete control)

Cc1cc(C)c2sc(C)c(-c3c(O)c(C)nn(C)c3=O)c2c1 [Compound 2, 5-hydroxy-2,6-dimethyl-4-(2,5,7-trimethylbenzo[b]thien-3-yl)-3(2H)-pyridazinone]
40: Plant response rating, Kochia [2, 20]
90: Plant response rating, Surinam Grass [1, 12] | Plant response rating, Pigweed, Palmer [7, 27] | Plant response rating, Dayflower, VA [8, 20] | Plant response rating, Waterhemp [9, 23]
15: Plant response rating, Crabgrass, Brazil [6, 23] | Plant response rating, Dayflower, VA [8, 21] | Plant response rating, Dayflower, VA [8, 18]
5: Plant response rating, Surinam Grass [1, 13] | Plant response rating, Goosegrass [5, 11] | Plant response rating, Pigweed, Palmer [7, 21] | Plant response rating, Pigweed, Palmer [7, 22]
60: Plant response rating, Crabgrass, Brazil [6, 16]
80: Plant response rating, Waterhemp [9, 16]
70: Plant response rating, Nutsedge, Yellow [3, 15] | Plant response rating, Barnyardgrass [4, 20] | Plant response rating, Waterhemp [9, 24] | Plant response rating, Waterhemp [9, 25]
0: Plant response rating, Kochia [2, 16] | Plant response rating, Kochia [2, 17] | Plant response rating, Kochia [2, 18] | Plant response rating, Kochia [2, 19] | Plant response rating, Nutsedge, Yellow [3, 13] | Plant response rating, Nutsedge, Yellow [3, 14] | Plant response rating, Barnyardgrass [4, 16] | Plant response rating, Barnyardgrass [4, 17] | Plant response rating, Barnyardgrass [4, 18] | Plant response rating, Goosegrass [5, 13] | Plant response rating, Goosegrass [5, 14] | Plant response rating, Crabgrass, Brazil [6, 21] | Plant response rating, Crabgrass, Brazil [6, 24] | Plant response rating, Crabgrass, Brazil [6, 17] | Plant response rating, Pigweed, Palmer [7, 24] | Plant response rating, Pigweed, Palmer [7, 17] | Plant response rating, Dayflower, VA [8, 24] | Plant response rating, Dayflower, VA [8, 17] | Plant response rating, Johnsongrass [10, 13]
50: Plant response rating, Crabgrass, Brazil [6, 19] | Plant response rating, Pigweed, Palmer [7, 16] | Plant response rating, Pigweed, Palmer [7, 25] | Plant response rating, Johnsongrass [10, 15]
100: Plant response rating, Crabgrass, Brazil [6, 20] | Plant response rating, Pigweed, Palmer [7, 20]
30: Plant response rating, Barnyardgrass [4, 22]
75: Plant response rating, Surinam Grass [1, 11] | Plant response rating, Waterhemp [9, 21] | Plant response rating, Waterhemp [9, 22]
35: Plant response rating, Surinam Grass [1, 14] | Plant response rating, Nutsedge, Yellow [3, 11] | Plant response rating, Barnyardgrass [4, 23] | Plant response rating, Crabgrass, Brazil [6, 18] | Plant response rating, Pigweed, Palmer [7, 23] | Plant response rating, Johnsongrass [10, 14] | Plant response rating, Johnsongrass [10, 26]
10: Plant response rating, Crabgrass, Brazil [6, 22] | Plant response rating, Crabgrass, Brazil [6, 25]
85: Plant response rating, Waterhemp [9, 27]
20: Plant response rating, Barnyardgrass [4, 24] | Plant response rating, Barnyardgrass [4, 25] | Plant response rating, Pigweed, Palmer [7, 18] | Plant response rating, Dayflower, VA [8, 16] | Plant response rating, Dayflower, VA [8, 25] | Plant response rating, Johnsongrass [10, 11]
65: Plant response rating, Nutsedge, Yellow [3, 12] | Plant response rating, Dayflower, VA [8, 22] | Plant response rating, Dayflower, VA [8, 23] | Plant response rating, Waterhemp [9, 17] | Plant response rating, Waterhemp [9, 18]
25: Plant response rating, Barnyardgrass [4, 21] | Plant response rating, Barnyardgrass [4, 19] | Plant response rating, Goosegrass [5, 26] | Plant response rating, Goosegrass [5, 15] | Plant response rating, Dayflower, VA [8, 19]
98: Plant response rating, Waterhemp [9, 20]
95: Plant response rating, Surinam Grass [1, 15]

Cn1nc(Br)c(O)c(-c2cccc3ccccc23)c1=O [Compound 20]
95: Plant response rating, Nutsedge, Yellow [3, 15]
90: Plant response rating, Surinam Grass [1, 15] | Plant response rating, Kochia [2, 16] | Plant response rating, Kochia [2, 23] | Plant response rating, Crabgrass, Brazil [6, 20]
50: Plant response rating, Nutsedge, Yellow [3, 11] | Plant response rating, Barnyardgrass [4, 21] | Plant response rating, Goosegrass [5, 26] | Plant response rating, Crabgrass, Brazil [6, 23] | Plant response rating, Dayflower, VA [8, 22] | Plant response rating, Dayflower, VA [8, 23]
60: Plant response rating, Kochia [2, 25] | Plant response rating, Barnyardgrass [4, 22] | Plant response rating, Crabgrass, Brazil [6, 16]
10: Plant response rating, Surinam Grass [1, 14] | Plant response rating, Barnyardgrass [4, 19] | Plant response rating, Goosegrass [5, 11] | Plant response rating, Crabgrass, Brazil [6, 25] | Plant response rating, Dayflower, VA [8, 21]
30: Plant response rating, Barnyardgrass [4, 25] | Plant response rating, Barnyardgrass [4, 20]
35: Plant response rating, Pigweed, Palmer [7, 21]
0: Plant response rating, Kochia [2, 18] | Plant response rating, Nutsedge, Yellow [3, 14] | Plant response rating, Barnyardgrass [4, 16] | Plant response rating, Barnyardgrass [4, 18] | Plant response rating, Pigweed, Palmer [7, 16] | Plant response rating, Pigweed, Palmer [7, 18] | Plant response rating, Dayflower, VA [8, 16] | Plant response rating, Dayflower, VA [8, 25] | Plant response rating, Dayflower, VA [8, 18] | Plant response rating, Dayflower, VA [8, 19] | Plant response rating, Dayflower, VA [8, 20] | Plant response rating, Waterhemp [9, 18] | Plant response rating, Johnsongrass [10, 14] | Plant response rating, Johnsongrass [10, 15]
65: Plant response rating, Surinam Grass [1, 11] | Plant response rating, Kochia [2, 21] | Plant response rating, Waterhemp [9, 16]
85: Plant response rating, Surinam Grass [1, 12] | Plant response rating, Goosegrass [5, 15] | Plant response rating, Waterhemp [9, 27] | Plant response rating, Waterhemp [9, 23]
40: Plant response rating, Crabgrass, Brazil [6, 18] | Plant response rating, Pigweed, Palmer [7, 25]
20: Plant response rating, Goosegrass [5, 14] | Plant response rating, Crabgrass, Brazil [6, 21] | Plant response rating, Crabgrass, Brazil [6, 22]
70: Plant response rating, Crabgrass, Brazil [6, 19] | Plant response rating, Pigweed, Palmer [7, 23] | Plant response rating, Pigweed, Palmer [7, 20] | Plant response rating, Waterhemp [9, 25]
100: Plant response rating, Kochia [2, 20] | Plant response rating, Waterhemp [9, 20]
5: Plant response rating, Pigweed, Palmer [7, 27]
55: Plant response rating, Pigweed, Palmer [7, 22]
80: Plant response rating, Barnyardgrass [4, 23] | Plant response rating, Waterhemp [9, 22]
98: Plant response rating, Kochia [2, 19]
75: Plant response rating, Kochia [2, 22] | Plant response rating, Nutsedge, Yellow [3, 12] | Plant response rating, Waterhemp [9, 21]

Cc1cc(C)c2ccccc2c1-c1c(O)c(C)nn(C)c1=O [Compound 21]
80: Plant response rating, Nutsedge, Yellow [3, 12] | Plant response rating, Dayflower, VA [8, 18] | Plant response rating, Dayflower, VA [8, 19]
65: Plant response rating, Kochia [2, 19] | Plant response rating, Pigweed, Palmer [7, 18]
60: Plant response rating, Dayflower, VA [8, 16] | Plant response rating, Johnsongrass [10, 26]
20: Plant response rating, Johnsongrass [10, 11]
0: Plant response rating, Kochia [2, 16] | Plant response rating, Kochia [2, 18] | Plant response rating, Nutsedge, Yellow [3, 14]
70: Plant response rating, Barnyardgrass [4, 16] | Plant response rating, Pigweed, Palmer [7, 16]
40: Plant response rating, Barnyardgrass [4, 18]
90: Plant response rating, Barnyardgrass [4, 19] | Plant response rating, Goosegrass [5, 14] | Plant response rating, Crabgrass, Brazil [6, 18]
98: Plant response rating, Crabgrass, Brazil [6, 16] | Plant response rating, Pigweed, Palmer [7, 27]
95: Plant response rating, Surinam Grass [1, 14] | Plant response rating, Goosegrass [5, 11] | Plant response rating, Goosegrass [5, 26] | Plant response rating, Waterhemp [9, 16] | Plant response rating, Waterhemp [9, 18]
75: Plant response rating, Nutsedge, Yellow [3, 11]
100: Plant response rating, Surinam Grass [1, 11] | Plant response rating, Surinam Grass [1, 12] | Plant response rating, Crabgrass, Brazil [6, 19] | Plant response rating, Waterhemp [9, 27]
